For assay [1] the following is noted: used in vitro to dye a cell; cited from earlier work.
The nature of assay [2]: sensitivity of the VSD according to an external voltage (FIGS. 4A and 4B). The following applies: electrical stimulation=500 mA; compared with Di-4-ANEPPS. From the text: VSD according to an external voltage, and FIG. 4B is a diagram showing sensitivity of the VSD of the exemplary embodiment of the present invention according to an external voltage.
Referring to FIGS. 4A and 4B, sensitivities according to a voltage between the conventional VSD (Di-4-ANEPPS) in FIG. 4A and the VSD according to the exemplary embodiment of the present invention (ETRI-Di-8) in FIG. 4B are compared (electrical stimulation=500 mA).

Each structure is given as a SMILES string.

Regarding `CCCCN(CCCC)c1ccc2cc(/C=C/c3cc[n+](CCCS(=O)(=O)[O-])cc3)ccc2c1` [Di-4-ANEPPS], the “sensitivity to an electric field” value in assay [1] is listed as “approximately 10 % per 100 mV”.

Turning to `O=S1(=O)CCCO1` [ETRI-Di-8], in assay [2], the “voltage sensitivity relative to Di-4-ANEPPS” value was “three”.

Values taken from patent US20110144348A1, “VOLTAGE-SENSITIVE DYE AND METHOD OF PREPARING THE SAME” (Electronics and Telecommunications Research Institute, priority 2009, published 2011).
